Results published in PMC10377586 (Biomolecules, 2023).

What was measured:
[1] = target: T1, human MAO-B (Homo sapiens, UniProt P27338); experiment: Amplex Red monoamine oxidase assay, MAO-B; assay type: biochemical; conditions: human recombinant MAO-B; read-out: MAO-B IC50 ± SEM
T1 construct: purchased Sigma Aldrich M7441
T1 sequence (P27338 1-520): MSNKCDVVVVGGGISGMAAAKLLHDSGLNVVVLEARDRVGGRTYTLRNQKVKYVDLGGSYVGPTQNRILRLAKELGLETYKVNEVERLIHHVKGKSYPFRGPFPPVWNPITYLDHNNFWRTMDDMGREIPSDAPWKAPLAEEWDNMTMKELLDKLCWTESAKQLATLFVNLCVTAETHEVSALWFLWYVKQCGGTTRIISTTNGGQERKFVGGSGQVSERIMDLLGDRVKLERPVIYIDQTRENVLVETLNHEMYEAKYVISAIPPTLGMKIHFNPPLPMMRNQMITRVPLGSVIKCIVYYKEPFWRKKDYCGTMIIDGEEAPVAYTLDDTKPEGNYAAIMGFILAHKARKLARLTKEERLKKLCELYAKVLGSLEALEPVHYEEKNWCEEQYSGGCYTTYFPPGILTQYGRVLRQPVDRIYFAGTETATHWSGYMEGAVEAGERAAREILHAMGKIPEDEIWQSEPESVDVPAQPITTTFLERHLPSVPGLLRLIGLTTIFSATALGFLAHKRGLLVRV

[2] = target: T2, human MAO-A (Homo sapiens, UniProt P21397); experiment: Amplex Red monoamine oxidase assay, MAO-A; assay type: biochemical; conditions: for IC50: human recombinant MAO-A, read-out: MAO-A IC50 ± SEM; for inhibition at 1 µM: read-out: MAO-A % Inhibition ± SEM at 1 µM
T2 construct: purchased Sigma Aldrich M7316
T2 sequence (P21397 1-527): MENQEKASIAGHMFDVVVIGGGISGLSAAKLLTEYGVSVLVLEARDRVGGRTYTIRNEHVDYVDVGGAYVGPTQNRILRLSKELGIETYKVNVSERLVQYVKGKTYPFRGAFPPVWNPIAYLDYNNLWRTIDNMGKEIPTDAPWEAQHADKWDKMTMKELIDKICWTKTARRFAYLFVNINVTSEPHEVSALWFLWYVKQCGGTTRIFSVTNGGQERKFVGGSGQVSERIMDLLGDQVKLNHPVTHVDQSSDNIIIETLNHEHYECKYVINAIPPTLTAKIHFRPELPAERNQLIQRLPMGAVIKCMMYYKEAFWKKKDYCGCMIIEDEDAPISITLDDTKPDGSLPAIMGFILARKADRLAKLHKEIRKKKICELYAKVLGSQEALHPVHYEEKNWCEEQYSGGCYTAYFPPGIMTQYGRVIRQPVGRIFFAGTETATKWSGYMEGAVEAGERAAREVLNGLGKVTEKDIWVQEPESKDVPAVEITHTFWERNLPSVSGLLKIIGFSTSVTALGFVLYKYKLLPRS
Protocol: The final compounds were evaluated in vitro for their human MAO-B (hMAO-B) inhibitory potencies, and selected structures were also investigated for human MAO-A (hMAO-A) inhibition.
Inhibition activity of compounds at MAO enzyme isoforms was measured via a fluorometric method using the Amplex Red Monoamine Oxidase Assay (ThermoFisher Scientific, Waltham, MA, USA #A12214) in a 96-well plates. Human recombinant MAO-B and MAO-A enzymes (Sigma Aldrich, St. Louis, MO, USA #M7441 and #M7316) were used. The assays were conducted as previously described.

[3] = target: T3, rat A2A (rA2A) ARs (Rattus norvegicus, UniProt P30543); experiment: Radioligand binding [3H]MSX-2, rat brain striatal membranes; conditions: read-out: rA2A [3H]MSX-2 Ki ± SEM
T3 construct: rat brain striatal membrane preparations for A2A AR assays; tissue Pel Freez; host or cells: rat brain striatum membranes
Protocol: (§1) The final compounds were tested in radioligand binding assays to evaluate their affinity for all four ARs subtypes (see Table 2). Rat brain cortical membrane preparations were used as a source of rat A1 (rA1) ARs, and rat brain striatal membrane preparations served as a source of rat A2A (rA2A) ARs. For A2B- and A3AR assays, membrane preparations of Chinese hamster ovary (CHO) cells recombinantly expressing either human A2B (hA2B) or human A3 (hA3) ARs were employed.
(§2) Adenosine receptor radioligand binding assays were performed as previously described using rat brain cortical membrane preparations for A1 and rat brain striatal membrane preparations for A2A AR assays. Frozen rat brains (unstripped) were obtained from Pel Freez, Rogers, AR, USA. For assays at human AR subtypes, cell membranes of CHO cells recombinantly expressing the respective receptor were used. The following compounds were employed as radioligands: A1: [^3H]2-chloro-N^6-cyclopentyladenosine ([^3H]CCPA); A2A: [^3H]3-(3-hydroxypropyl)-7-methyl-8-(m-methoxystyryl)-1-propargylxanthine ([^3H]MSX-2); A2B: [^3H]8-(4-(4-(4-chlorophenyl)piperazine-1-sulfonyl)phenyl)-1-propylxanthine ([^3H]PSB-603); A3: [^3H]phenyl-8-ethyl-4-methyl-(8R)-4,5,7,8-tetrahydro-1H-imidazo[2,1-i]purine-5-one ([^3H]PSB-11). Initially, a single high concentration of compound was tested (1 µM). For potent compounds, full concentration–inhibition curves were determined using six to ten different concentrations of test compound spanning three orders of magnitude. At least three independent experiments were performed. Data were analyzed using GraphPad PRISM program version 4.0 or higher (Graph Pad, San Diego, CA, USA).

[4] = target: T4, human A2B (hA2B) ARs (Homo sapiens, UniProt P29275); experiment: Radioligand binding [3H]PSB-603, CHO cell membranes; conditions: for Ki: CHO cell membranes, read-out: hA2B [3H]PSB-603 Ki ± SEM; for inhibition at 1 µM: read-out: hA2B [3H]PSB-603 % inhibition ± SEM at 1 µM
T4 construct: expressed in transfected cells; host or cells: CHO cells (membranes)
T4 sequence (P29275 1-332): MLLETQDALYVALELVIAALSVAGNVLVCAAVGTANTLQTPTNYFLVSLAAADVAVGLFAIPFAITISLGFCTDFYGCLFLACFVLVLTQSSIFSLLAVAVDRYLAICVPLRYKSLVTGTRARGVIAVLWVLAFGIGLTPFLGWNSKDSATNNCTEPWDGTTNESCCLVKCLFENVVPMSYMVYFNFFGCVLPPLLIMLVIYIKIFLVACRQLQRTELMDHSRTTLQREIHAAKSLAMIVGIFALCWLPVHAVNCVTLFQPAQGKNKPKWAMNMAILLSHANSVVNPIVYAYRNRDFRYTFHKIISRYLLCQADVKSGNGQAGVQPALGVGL
Protocol: as §1, §2

T3 sequence (P30543 whole entry): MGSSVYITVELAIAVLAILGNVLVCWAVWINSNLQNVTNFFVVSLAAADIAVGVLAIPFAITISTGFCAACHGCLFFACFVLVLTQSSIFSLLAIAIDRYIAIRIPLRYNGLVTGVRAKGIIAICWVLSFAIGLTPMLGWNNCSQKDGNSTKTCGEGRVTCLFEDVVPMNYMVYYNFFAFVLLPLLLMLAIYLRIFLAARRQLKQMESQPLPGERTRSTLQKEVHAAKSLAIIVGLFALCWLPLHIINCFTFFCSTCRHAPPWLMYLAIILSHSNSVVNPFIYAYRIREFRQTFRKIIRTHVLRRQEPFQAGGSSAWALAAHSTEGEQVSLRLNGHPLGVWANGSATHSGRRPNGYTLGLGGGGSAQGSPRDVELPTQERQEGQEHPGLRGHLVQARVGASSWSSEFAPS

Row | SMILES | IC50 [1] [nM] | IC50 [2] [nM] | inhibition at 1 µM [2] [%] | Ki [3] [nM] | Ki [4] [nM] | inhibition at 1 µM [4] [%]
1 | Cn1c(=O)c2c(nc3n2CCCCN3CCc2ccc(O)c(O)c2)n(C)c1=O [Compound 20b, 10-(3,4-Dihydroxyphenethyl)-1,3-dimethyl-7,8,9,10-tetrahydro-1H-[1, 3]diazepino[2,1-f]purine-2,4(3H,6H)-dione] | 101 ± 21 | > 1000 | 44 | 234 ± 55 | > 1000 | 6
2 | CCCCn1c(=O)c2c(nc(NCCc3ccc(O)c(O)c3)n2CCC)n(CCCC)c1=O [Compound 13, 1,3-Dibutyl-8-((3,4-dihydroxyphenethyl)amino)-7-propyl-3,7-dihydro-1H-purine-2,6-dione] | 81.8 ± 19.7 | > 1000 | 36 | 1320 ± 250 | > 1000 | 31
3 | CCCCn1c(NCCc2ccc(O)c(O)c2)nc2c1c(=O)n(C)c(=O)n2C [Compound 11e, 7-Butyl-8-((3,4-dihydroxyphenethyl)amino)-1,3-dimethyl-3,7-dihydro-1H-purine-2,6-dione] | 43.8 ± 16.2 | > 1000 | 38 | 1700 ± 260 | > 1000 | 14
4 | CCCCCCn1c(NCCc2ccc(O)c(O)c2)nc2c1c(=O)n(C)c(=O)n2C [Compound 11i, 8-((3,4-Dihydroxyphenethyl)amino)-7-hexyl-1,3-dimethyl-3,7-dihydro-1H-purine-2,6-dione] | 76.4 ± 0.7 | 246 ± 72 |  | > 10000 | > 1000 | 31
5 | CCn1c(NCCc2ccc(O)c(O)c2)nc2c1c(=O)n(C)c(=O)n2C [Compound 11b, 8-((3,4-Dihydroxyphenethyl)amino)-7-ethyl-1,3-dimethyl-3,7-dihydro-1H-purine-2,6-dione] | 47.9 ± 8.4 | 891 ± 63 |  | 672 ± 83 | > 1000 | -2
6 | CCCCn1c(=O)c2c(nc3n2CCCN3CCc2ccc(O)c(O)c2)n(CCCC)c1=O [Compound 22, 1,3-Dibutyl-9-(3,4-dihydroxyphenethyl)-6,7,8,9-tetrahydropyrimido[2,1-f]purine-2,4(1H,3H)-dione] | 170 ± 30 | > 1000 | 43 | 334 ± 52 | 175 ± 21 | 
7 | Cn1c(=O)c2c(nc3n2CCCN3CCc2ccc(O)c(O)c2)n(C)c1=O [Compound 20a, 9-(3,4-Dihydroxyphenethyl)-1,3-dimethyl-6,7,8,9-tetrahydropyrimido[2,1-f]purine-2,4(1H,3H)-dione] | 121 ± 23 | > 1000 | 29 | 507 ± 109 | > 1000 | 13
